{"source": "patent US8916499B2", "about": "“Herbicidal compositions comprising 4-amino-3-chloro-5-fluoro-6-(4-chloro-2-fluoro-3-methoxyphenyl) pyridine-2-carboxylic acid or a derivative thereof and a protoporphyrinogen oxidase inhibitor” (Dow AgroSciences LLC, priority 2012, dated 2014)", "key": {"CYPES": {"test_system": "CYPES", "experiment": "Postemergence foliar-applied weed control, direct seeded rice, greenhouse (Example I)", "format": "in vivo, Cyperus esculentus L.", "conditions": "g ae/ha Compound A Acid+g ai/ha carfentrazone-ethyl: r27 4.38+0, r28 8.75+0, r29 0+7, r30 0+14, r31 4.38+7, r32 8.75+7, r33 4.38+14, r34 8.75+14"}, "CYPIR": {"test_system": "CYPIR", "experiment": "Postemergence foliar-applied weed control, direct seeded rice, greenhouse (Example I)", "format": "in vivo, Cyperus iria L.", "conditions": "g ae/ha Compound A Benzyl Ester+g ai/ha carfentrazone-ethyl: r11 8.75+0, r12 0+3.5, r13 0+7, r14 0+14, r15 8.75+3.5, r16 8.75+7, r17 8.75+14"}, "LEFCH [1]": {"test_system": "LEFCH", "experiment": "In-water applied weed control, transplanted paddy rice, greenhouse (Example II)", "format": "in vivo, Leptochloa chinensis (L.) Nees", "conditions": "g ae/ha Compound A Benzyl Ester+g ai/ha carfentrazone-ethyl: r11 8.75+0, r12 17.5+0, r13 35+0, r14 0+28, r15 8.75+28, r16 17.5+28, r17 35+28"}, "ECHOR": {"test_system": "ECHOR", "experiment": "In-water applied weed control, transplanted paddy rice, greenhouse (Example II)", "format": "in vivo, Echinochloa oryzoides (Ard.) Fritsch"}, "DIGSA": {"test_system": "DIGSA", "experiment": "Postemergence foliar-applied weed control, direct seeded rice, greenhouse (Example I)", "format": "in vivo, Digitaria sanguinalis (L.) Scop.", "conditions": "g ae/ha Compound A Acid+g ai/ha carfentrazone-ethyl: r11 4.38+0, r12 8.75+0, r13 17.5+0, r14 0+14, r15 4.38+14, r16 8.75+14, r17 17.5+14"}, "ECHCG [2]": {"test_system": "ECHCG", "experiment": "Postemergence foliar-applied weed control, direct seeded rice, greenhouse (Example I)", "format": "in vivo, Echinochloa crusgalli (L.) Beauv."}, "LEFCH [3]": {"test_system": "LEFCH", "experiment": "Postemergence foliar-applied weed control, direct seeded rice, greenhouse (Example I)", "format": "in vivo, Leptochloa chinensis (L.) Nees"}, "CYPRO": {"test_system": "CYPRO", "experiment": "In-water applied weed control, transplanted paddy rice, greenhouse (Example II)", "format": "in vivo, Cyperus rotundus L.", "conditions": "g ae/ha Compound A Benzyl Ester+g ai/ha pyraclonil: r19 4.38+0, r20 8.75+0, r21 0+45, r22 0+90, r23 4.38+45, r24 8.75+45, r25 4.38+90, r26 8.75+90"}, "BRAPP": {"test_system": "BRAPP", "experiment": "Postemergence foliar-applied weed control, direct seeded rice, greenhouse (Example I)", "format": "in vivo, Brachiaria platyphylla (Griseb.) Nash", "conditions": "g ae/ha Compound A Acid+g ai/ha pyraclonil: r11 4.38+0, r12 0+33.75, r13 0+67.5, r14 0+135, r15 4.38+33.75, r16 4.38+67.5, r17 4.38+135"}, "ECHCG [4]": {"test_system": "ECHCG", "experiment": "In-water applied weed control, transplanted paddy rice, greenhouse (Example II)", "format": "in vivo, Echinochloa crus-galli (L.) P. Beauv.", "conditions": "g ae/ha Compound A Acid+g ai/ha pyraclonil: r11 8.75+0, r12 17.5+0, r13 0+45, r14 8.75+45, r15 17.5+45"}, "IPOHE": {"test_system": "IPOHE", "experiment": "Postemergence foliar-applied weed control, direct seeded rice, greenhouse (Example I)", "format": "in vivo, Ipomoea hederacea Jacq."}, "ISCRU": {"test_system": "ISCRU", "experiment": "Postemergence foliar-applied weed control, direct seeded rice, greenhouse (Example I)", "format": "in vivo, Ischaemum rugosum Salisb.", "conditions": "g ae/ha Compound A Benzyl Ester+g ai/ha pyraclonil: r37 8+0, r38 16+0, r39 0+67.5, r40 0+135, r41 0+270, r42 8+67.5, r43 16+67.5, r44 8+135, r45 16+135, r46 8+270, r47 16+270"}}, "note": "Several values for one entry are separate records, joined by “and”; a condition that tells them apart may be missing. Equal entries are not always repeated.", "data": [{"smiles": "CCOC(=O)C(Cl)Cc1cc(-n2nc(C)n(C(F)F)c2=O)c(F)cc1Cl", "note": "(stereo not drawn) [Carfentrazone-ethyl, ethyl α,2-dichloro-5-[4-(difluoromethyl)-4,5-dihydro-3-methyl-5-oxo-1H-1,2,4-triazol-1-yl]-4-fluorobenzenepropanoate, reference compound]", "values": [{"measurement": "Visual Weed Control (%) - 21 DAA CYPES Obs", "setting": "CYPES", "result": 0, "unit": "%"}, {"measurement": "Visual Weed Control (%) - 21 DAA CYPIR Obs", "setting": "CYPIR", "result": 0, "unit": "%"}, {"measurement": "Visual Weed Control (%) - 21 DAA LEFCH Obs", "setting": "LEFCH [1]", "result": 10, "unit": "%"}, {"measurement": "Visual Weed Control (%) - 19 DAA ECHOR Obs", "setting": "ECHOR; g ae/ha Compound A Acid+g ai/ha carfentrazone-ethyl: r28 42.4+0, r29 0+215, r30 42.4+215", "result": 65, "unit": "%"}, {"measurement": "Visual Weed Control (%) - 21 DAA DIGSA Obs", "setting": "DIGSA", "result": 0, "unit": "%"}, {"measurement": "Visual Weed Control (%) - 21 DAA ECHCG Obs", "setting": "ECHCG [2]; g ae/ha Compound A Acid+g ai/ha carfentrazone-ethyl: r11 4.38+0, r12 8.75+0, r13 17.5+0, r14 0+14, r15 4.38+14, r16 8.75+14, r17 17.5+14", "result": 10, "unit": "%"}, {"measurement": "Visual Weed Control (%) - 21 DAA ECHCG Obs", "setting": "ECHCG [2]; g ae/ha Compound A Benzyl Ester+g ai/ha carfentrazone-ethyl: r11 8.75+0, r12 0+3.5, r13 0+7, r14 0+14, r15 8.75+3.5, r16 8.75+7, r17 8.75+14", "result": "0% and 10%"}, {"measurement": "Visual Weed Control (%) - 19 DAA LEFCH Obs", "setting": "LEFCH [3]; g ae/ha Compound A Acid+g ai/ha carfentrazone-ethyl: r39 19.4+0, r40 0+28, r41 19.4+28", "result": 10, "unit": "%"}, {"measurement": "Visual Weed Control (%) - 19 DAA LEFCH Obs", "setting": "LEFCH [3]; g ae/ha Compound A n-Butyl Ester+g ai/ha carfentrazone-ethyl: r11 16+0, r12 0+28, r13 16+28", "result": 10, "unit": "%"}]}, {"smiles": "C#CCN(C)c1c(C#N)cnn1-c1nn2c(c1Cl)CCCC2", "note": "[Pyraclonil, 1-(3-chloro-4,5,6,7-tetrahydropyrazolo[1,5-a]pyridin-2-yl)-5-(methyl-2-propynylamino)-1H-pyrazole-4-carbonitrile, reference compound]", "values": [{"measurement": "Visual Weed Control (%) - 20 DAA CYPRO Obs", "setting": "CYPRO", "result": 0, "unit": "%"}, {"measurement": "Visual Weed Control (%) - 20 DAA BRAPP Obs", "setting": "BRAPP", "result": 0, "unit": "%"}, {"measurement": "Visual Weed Control (%) - 20 DAA ECHCG Obs", "setting": "ECHCG [4]", "result": 0, "unit": "%"}, {"measurement": "Visual Weed Control (%) - 20 DAA ECHOR Obs", "setting": "ECHOR; g ae/ha Compound A Benzyl Ester+g ai/ha pyraclonil: r11 4.38+0, r12 8.75+0, r13 17.5+0, r14 0+45, r15 4.38+45, r16 8.75+45, r17 17.5+45", "result": 40, "unit": "%"}, {"measurement": "Visual Weed Control (%) - 20 DAA ECHCG Obs", "setting": "ECHCG [2]; g ae/ha Compound A Acid+g ai/ha pyraclonil: r24 4.38+0, r25 8.75+0, r26 0+33.75, r27 0+67.5, r28 0+135, r29 4.38+33.75, r30 8.75+33.75, r31 4.38+67.5, r32 8.75+67.5, r33 4.38+135, r34 8.75+135", "result": 0, "unit": "%"}, {"measurement": "Visual Weed Control (%) - 21 DAA ECHCG Obs", "setting": "ECHCG [2]; g ae/ha Compound A Acid+g ai/ha pyraclonil: r44 17.5+0, r45 35+0, r46 0+270, r47 17.5+270, r48 35+270", "result": 0, "unit": "%"}, {"measurement": "Visual Weed Control (%) - 21 DAA IPOHE Obs", "setting": "IPOHE; g ae/ha Compound A Acid+g ai/ha pyraclonil: r53 35+0, r54 0+270, r55 35+270", "result": 45, "unit": "%"}, {"measurement": "Visual Weed Control (%) - 21 DAA IPOHE Obs", "setting": "IPOHE; g ae/ha Compound A Benzyl Ester+g ai/ha pyraclonil: r27 17.5+0, r28 35+0, r29 0+270, r30 17.5+270, r31 35+270", "result": 45, "unit": "%"}, {"measurement": "Visual Weed Control (%) - 21 DAA ISCRU Obs", "setting": "ISCRU", "result": 0, "unit": "%"}]}]}
